Inconclusive results are not listed. Active and inactive are the calls of the source. How the calls were made is not given here.
The compounds below were run against CAAX prenyl protease 2 (Saccharomyces cerevisiae (strain ATCC 204508 / S288c)) (UniProt Q03530) (assay: yeast Rce1 CAAX endoprotease inhibition – biochemical, plate reader, cherry-pick, dose response (AID 488788)). Conditions: Rce1p enzyme activity, at 10 µM (top of the series).
Sequence of CAAX prenyl protease 2 (Saccharomyces cerevisiae (strain ATCC 204508 / S288c)) (Q03530 whole entry, looked up): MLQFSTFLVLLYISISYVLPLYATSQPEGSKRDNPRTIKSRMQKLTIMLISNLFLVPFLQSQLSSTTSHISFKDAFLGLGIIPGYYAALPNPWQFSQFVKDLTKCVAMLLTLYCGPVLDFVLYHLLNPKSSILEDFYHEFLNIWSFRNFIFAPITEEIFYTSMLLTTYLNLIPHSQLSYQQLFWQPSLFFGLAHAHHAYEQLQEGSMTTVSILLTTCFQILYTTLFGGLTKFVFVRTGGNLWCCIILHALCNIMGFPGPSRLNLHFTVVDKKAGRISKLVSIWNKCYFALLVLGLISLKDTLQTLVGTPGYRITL

Compound	activity change, negative = inhibition
O=C(COc1ncnc2cc([N+](=O)[O-])ccc12)NC(=O)NC1CCCCC1	inactive
Cc1cc(N2CCOCC2)n2cc(-c3ccccc3)nc2n1	inactive
CCCCNC(=O)c1cc2c(=O)n3cccc(C)c3nc2n(Cc2ccccc2)c1=N	inactive
Cc1cc(C)n(CC(=O)NC2CCCCC2C)c(=O)c1C#N (stereo unspecified)	inactive
C=CCn1c(O)c(C(CC)=Nc2ccc(N(CC)CC)cc2)c(=O)[nH]c1=O	inactive
Cc1nc(N2CCOCC2)c2c(C)c(C(=O)Nc3ccccc3C(F)(F)F)sc2n1	inactive
CCOC(=O)C[C@H]1c2ccccc2S(=O)(=O)N1Cc1cc(OC)c(OC)c(OC)c1	inactive
CCn1cc(C(=O)N[C@H](C)c2ccccc2)c(=O)c2cc(F)c(N3CCN(C)CC3)cc21	inactive
CCN1CCN(Cc2c(O)ccc3c(=O)c(-c4ccccc4OC)coc23)CC1	inactive
Oc1ccc(-c2nc3ccccn3c2NCc2ccco2)cc1	inactive
CCOc1cc(CNC2CCCC2)ccc1OCc1ccccc1Cl	inactive
Cc1ccc(C(=O)N/C(=C/c2ccco2)C(=O)Nc2cccc(C(=O)O)c2)cc1	inactive
Cc1cccc(NC(=O)c2cc(S(=O)(=O)N3CCCCC3)c[nH]2)c1C	inactive
COc1ccc(-c2ccc(-c3nnc(-c4cc(OC)ccc4OC)o3)cc2)cc1	inactive
CCn1c(COc2cccc(C)c2)nnc1SCC(=O)NC1CCCC1	inactive
CC(C)CC(=O)NC(=S)Nc1ccc(S(=O)(=O)Nc2nccs2)cc1	inactive
Cc1nn(-c2ccccc2)c2nc(N)c(C(N)=O)cc12	inactive
COC(C/C=C/C(=O)[C@H](C)OCc1ccccc1)OC	inactive
Cc1nc(SC(C(=O)c2ccccc2)c2ccccc2)nc2ccccc12 (stereo unspecified)	inactive
CCC(COC)NC(=O)CCc1nnc(Cc2cccc(C(F)(F)F)c2)o1 (stereo unspecified)	inactive
O=C(CCCn1c(=O)[nH]c2ccc(Br)cc2c1=O)NCc1ccc(Cl)cc1	inactive
CCOc1c2ccc(C(=O)NCc3ccco3)cc2nn1CCOC	inactive
COc1ccc(Cc2nc3ccc(C(=O)N4CCCC4)cc3o2)cc1	inactive

Compound	activity change, negative = inhibition
C=CC[N+]1(C)CC[C@]23c4c5ccc(O)c4O[C@H]2C(=O)CC[C@@]3(O)[C@H]1C5 (stereo partly specified)	inactive
COc1ccc(OC)c(NC(=O)c2cc3oc4ccccc4c3cc2O)c1	inactive
Nc1nc2c(ncn2COC(CO)CO)c(=O)[nH]1	inactive
CCOc1ccc(OCC)c(NC(=O)c2nnn(CC(=O)Nc3cc(C)cc(C)c3)c2N)c1	inactive
COc1cc(-c2nc3ccccn3c2/N=C/c2cc(OC)c(OC)c(OC)c2)ccc1O	inactive
CCCCOc1ccc(C(=O)Nn2c(-c3cccs3)nc3ccccc3c2=O)cc1	inactive
Cc1cc2cc(C#N)c(NCCNC(=S)NCCCN3CCOCC3)nc2cc1C	inactive
CC(Cc1cccs1)NC(=O)Nc1ccc([N+](=O)[O-])cc1 (stereo unspecified)	inactive
CCOC(=O)c1sc2nc(C3CC3)cc(-c3ccc(F)cc3)c2c1N	inactive
COc1cc2c(cc1OC)C(C)N(C(=O)c1cc3c(=O)oc4ccc(C)cc4c3s1)CC2 (stereo unspecified)	inactive
CCCOc1ccccc1C(=O)NCCCC(=O)O	inactive
Cc1cc(C(=O)N/N=C/c2c3ccccc3cc3ccccc23)n[nH]1	inactive
O=C1CN(C(=O)NCC(=O)N2CCCC2)c2ccccc2N1	inactive
CCOCc1cc(C)[nH]c(=O)c1C#N	inactive
NC(=O)[C@@H]1CC2(CC(c3cccc(NC(=O)CC(c4ccccc4)c4ccccc4)c3)=NO2)CN1C(=O)c1ccc(Cl)cc1 (stereo partly specified)	inactive
COc1ccc2oc(-c3ccccc3)c(C(=O)N3CCOCC3)c2c1	inactive
O=S(=O)(CC(CN1CCOCC1)N1CCOCC1)c1ccccc1 (stereo unspecified)	inactive
O=C(C1=C[C@@H](C2CC2)C[C@@H](OCc2ccc(CO)cc2)O1)N1CCN(Cc2ccccc2)CC1	inactive
CSc1ccc(C(=O)C2CCCN(C(=O)c3cccnc3SC)C2)cc1 (stereo unspecified)	inactive
CC1CCC/C(=C\Nc2ccccc2C(=O)O)C1=O (stereo unspecified)	inactive
Cc1cc(Br)ccc1NC(=O)c1cnc(N2CCN(c3ccccn3)CC2)c2ccccc12	inactive
CC(C)CNC(=O)COc1cccc(C(=O)NCc2ccccc2)c1	inactive
COc1cccc(-c2csc(N3CCN(C(=O)NC45CC6CC(CC(C6)C4)C5)CC3)n2)c1	inactive

Compound	activity change, negative = inhibition
CC(C)c1ccc(NC(=O)COc2nncc3ccccc23)cc1	inactive
Cc1ccc(C2(COC(=O)C(C)C)CO2)c(OC(=O)C(C)C)c1 (stereo unspecified)	inactive
CC(C)C[C@H](NC(=O)c1nc[nH]c1C(=O)N1CCNCC1)C(=O)OCc1ccccc1	inactive
NS(=O)(=O)c1ccc(NC(=O)/C=C/c2cn(-c3ccccc3)nc2-c2cccc(Cl)c2)cc1	inactive
COc1ccc2c(c1)cc(C(=O)N[C@@H](CCSC)C(=O)N1CCC(C(=O)O)CC1)n2C	inactive
CCOc1ccc(NC(=O)CCSc2ccc(C)cc2)cc1	inactive
COc1ccc(/C=N/NC(=O)c2ccc(Cl)cc2)cc1COC(C)=O	inactive
CCN1CCN(CC(O)COc2ccc3c(C)cc(=O)oc3c2)CC1 (stereo unspecified)	inactive
COc1ccc(C(=O)/C=C/c2ccc(OC)cc2OC)c(O)c1	inactive
O=C1CCCC(O)=C1N=Nc1ccc2ncsc2c1	inactive
COC(C/C=C/[C@H](O)[C@@H](C)OCc1ccccc1)OC	inactive
O=C(N/N=C/C1CC=CCC1)c1ccc(O)cc1O (stereo unspecified)	inactive
Cc1cc(N/N=C/c2ccc(O)c(C)c2O)nc(-c2ccccc2O)n1	inactive
Cc1nn(CCC(=O)O)c2nc(-c3cccnc3)cc(C(F)(F)F)c12	inactive
COc1ccccc1N1CCN(C(=O)c2coc(=O)c(Br)c2)CC1	inactive
CCOc1ccc(C2C(C#N)=C(N)Oc3c2c(=O)oc2ccccc32)cc1 (stereo unspecified)	inactive
Cc1ccc(C(=O)c2c3ccc(C(F)(F)F)cc3[n+]([O-])n2CCCC(N)=O)cc1	inactive
CCC(=O)Nc1cc(-c2nn(CC(=O)N3CCCCC3)c(=O)c3ccccc23)ccc1N1CCOCC1	inactive
O=C(O)c1ccc(Nc2nc3ccc(Cl)cc3[nH]2)cc1	inactive
COC(C[C@@H](O)C[C@H](O)[C@H](C)OCc1ccccc1)OC	inactive
COc1nc(-c2ccccc2)ccc1-c1noc(-c2ccccc2F)n1	inactive
CC(=O)NN1C(=O)c2ccccc2NC1c1ccccc1 (stereo unspecified)	inactive
O=C(Nc1cccc2ncccc12)c1cccnc1	inactive

Compound	activity change, negative = inhibition
O=C(O)CCC(=O)c1ccc(-c2ccccc2)cc1	inactive
COc1cccc(NC(=O)Nc2cccn(Cc3ccc(C)cc3)c2=O)c1	inactive
COCCN1C(=O)/C(=C/c2ccc(Oc3ccc([N+](=O)[O-])cn3)c(OC)c2)SC1=Nc1ccccc1	inactive
COc1cc(-c2c(C#N)c(N)nc3c2c(C)nn3-c2ccc(C)c(C)c2)cc(OC)c1OC	inactive
O=C1CN(S(=O)(=O)c2ccc([N+](=O)[O-])cc2)CC(=O)N1	inactive
COC(=O)Cn1c(CCC(=O)O)ccc1-c1ccccc1	inactive
COc1ccc(S(=O)(=O)N(CC(=O)N2CCCC2)Cc2ccccc2)cc1	inactive
CC1=C(C(=O)OCc2ccccc2)C(c2ccc(-c3ccccc3)cc2)NC(=O)N1CCCC(=O)O (stereo unspecified)	inactive
COc1ccc(OCC(=O)NS(=O)(=O)c2ccc(Cl)cc2)cc1	inactive
Cc1cc(C(=O)N[C@H](c2ccccc2)[C@@]2(C)C[C@@H]2[C@@H](C)C(=O)Nc2ccc3ccccc3c2)n(C)n1	inactive
Cc1ccc(C(=O)N2N=C(c3ccccc3O)CC2c2ccccc2)cc1 (stereo unspecified)	inactive
Cc1c(Cl)c([N+](=O)[O-])nn1CC(=O)N1CCCc2ccccc21	inactive
CC(C)NCC(O)COCCOc1ccc(Br)cc1 (stereo unspecified)	inactive
CCCCCCCCNC(C)C(O)c1ccc(SC(C)C)cc1 (stereo unspecified)	inactive
CC(=O)Nc1ccc(Cl)cc1C1COC(=O)C1=N (stereo unspecified)	inactive
CN(C)c1ccc(/C=N/NC(=O)C(O)c2ccc(Br)cc2)cc1 (stereo unspecified)	inactive
Cc1ccccc1OC(C)C(=O)N1CCC(Cc2ccccc2)CC1 (stereo unspecified)	inactive
C/C(CC1(O)C(=O)Nc2ccccc21)=N\O (stereo unspecified)	inactive
CCCCn1c(-c2sccc2C)n[nH]c1=S	inactive
COc1ccc(-n2c(N)c(C(=O)NCc3ccco3)c3nc4ccccc4nc32)c(OC)c1	inactive
CCOC(=O)c1cc(C)[nH]c(=O)c1C#N	inactive
Cc1nc(N2CCOCC2)c2cc(-c3ccccc3)sc2n1	inactive
